These results are taken from patent US11425909B2, “Use of tetrazolinones for combating resistant phytopathogenic fungi on fruits” (priority 2016, dated 2022).

This assay concerns Uncinula necator (UNCINE), Qol-sensitive isolate. As to the kind of experiment: Activity against grape powdery mildew, protective glasshouse test, Qol-sensitive isolate. It is filed as in vivo. The settings on record: % infected leaf area on grape plants, inoculated 2 days after treatment, assessed 19 days after inoculation. Here is the method: Activity against grape powdery mildew caused by Uncinula necator (UNCINE)
The active compounds were formulated separately. Both compounds were applied on plants at the same concentrations of 100, 25 and 5 ppm. The spray broths were prepared as aqueous solutions based on a 6% EC of compound I according to the present invention and a 5% Aceton/water solution of compound I-213 from prior art (WO2013/092224).
The spray solutions were applied until runoff using an experimental glasshouse spray machine at a water volume equivalent to 1.000 L/ha. Treated plants were placed (together with untreated plants as a reference for infection success) in a glasshouse chamber at approx. 18° C. and 50% rH for two days. Two days after treatment, the plants were split into two groups. They were artificially inoculated using an aqueous conidia suspension of 0.1 to 0.5 E05 conidia/ml. One part was inoculated using a Qol-sensitive isolate, the other part using a Qol-resistant isolate carrying the target mutation G143A. After the artificial inoculation, the plants were placed in a glasshouse chamber at 21° C. and 55% rH for 19 days. The assessment of the infection was done 19 days after the inoculation and reported as % infected leaf area on two leaves which were fully covered by the spray application.

Regarding `Cc1cccc(-n2nnn(C)c2=O)c1COc1ccn(-c2ccc(Cl)cc2)n1` [compound I, 1-[2-[[1-(4-chlorophenyl)pyrazol-3-yl]oxymethyl]-3-methyl-phenyl]-4-methyl-tetrazol-5-one], the “Infection (%) Sens. Uncinula necator” value by setting is: (5 ppm spray) 0.3%; (25 ppm spray) 0.4%; (100 ppm spray) 0.0%.
